{
  "source": "patent US20220281848A1",
  "about": "“PYRAZOLE-SUBSTITUTED PYRROLIDINONES AS HERBICIDES” (FMC Corporation, priority 2019, published 2022)",
  "system": "plants",
  "test": "Test D pre-emergence, other plants of Tables D1 and D3",
  "assay_type": "in vivo",
  "conditions": "pre-emergence, 100=total damage, 0=no damage; for ALOMY damage rating / AVEFA damage rating / BEAVA damage rating / BROTE damage rating / BRSNN damage rating / CHEAL damage rating / GALAP damage rating / HORVW damage rating / KCHSC damage rating / LOLPE damage rating / POAAN damage rating / SINAR damage rating / STEME damage rating / VERPE damage rating: 20 DAA",
  "method": "A formulation containing 50 g/L of the test chemical was prepared by dissolving the active ingredient in a mixture of organic solvents and emulsifier, details of which are provided in the table. This formulation was then mixed with a small, variable amount of acetone to aid dissolution, before addition of a 0.2% v/v aqueous solution of an adjuvant, as the aqueous diluent, to form an aqueous spray solution which contains a predetermined concentration of the active ingredient.\nThis aqueous spray solution was then sprayed onto plants including maize and wheat that had been seed treated with a herbicide safener, after one day's cultivation (for pre-emergence) or after about 12 days' cultivation (for post-emergence). The plants were grown from seeds sown in standard soil, placed in a glasshouse under controlled conditions (at 24/18° C. or 20/16° C., day/night; 16 h light; 65% humidity). After spray application the plants were then grown in a glasshouse under the same conditions and watered twice daily. After 15 d for post-emergence and 20 DAA for pre-emergence the test was evaluated (100=total damage to plant; 0=no damage to plant).",
  "data": [
    {"smiles": "CN1CC(c2cc(Cl)n(C)n2)C(C(=O)Nc2ccc(F)c(F)c2F)C1=O", "note": "(racemic) [Compound 31]", "values": [
      {"measurement": "ALOMY damage rating", "setting": "Rates 15", "value": 0},
      {"measurement": "ALOMY damage rating", "setting": "Rates 30", "value": 0},
      {"measurement": "AVEFA damage rating", "setting": "Rates 15", "value": 0},
      {"measurement": "AVEFA damage rating", "setting": "Rates 30", "value": 0},
      {"measurement": "BEAVA damage rating", "setting": "Rates 15", "value": 0},
      {"measurement": "BEAVA damage rating", "setting": "Rates 30", "value": 0},
      {"measurement": "BROTE damage rating", "setting": "Rates 15", "value": 0},
      {"measurement": "BROTE damage rating", "setting": "Rates 30", "value": 0},
      {"measurement": "BRSNN damage rating", "setting": "Rates 15", "value": 0},
      {"measurement": "BRSNN damage rating", "setting": "Rates 30", "value": 0},
      {"measurement": "CHEAL damage rating", "setting": "Rates 15", "value": 0},
      {"measurement": "CHEAL damage rating", "setting": "Rates 30", "value": 0},
      {"measurement": "CHEAL damage rating", "setting": "Rates 60", "value": 0},
      {"measurement": "CHEAL damage rating", "setting": "Rates 130", "value": 0},
      {"measurement": "CHEAL damage rating", "setting": "Rates 250", "value": 0},
      {"measurement": "CHEAL damage rating", "setting": "Rates 500", "value": 20},
      {"measurement": "GALAP damage rating", "setting": "Rates 15", "value": 0},
      {"measurement": "GALAP damage rating", "setting": "Rates 30", "value": 0},
      {"measurement": "GALAP damage rating", "setting": "Rates 60", "value": 0},
      {"measurement": "GALAP damage rating", "setting": "Rates 130", "value": 0},
      {"measurement": "GALAP damage rating", "setting": "Rates 250", "value": 0},
      {"measurement": "GALAP damage rating", "setting": "Rates 500", "value": 0},
      {"measurement": "HORVW damage rating", "setting": "Rates 15", "value": 0},
      {"measurement": "HORVW damage rating", "setting": "Rates 30", "value": 0},
      {"measurement": "KCHSC damage rating", "setting": "Rates 15", "value": 0},
      {"measurement": "KCHSC damage rating", "setting": "Rates 30", "value": 0},
      {"measurement": "KCHSC damage rating", "setting": "Rates 60", "value": 0},
      {"measurement": "KCHSC damage rating", "setting": "Rates 130", "value": 0},
      {"measurement": "KCHSC damage rating", "setting": "Rates 250", "value": 0},
      {"measurement": "KCHSC damage rating", "setting": "Rates 500", "value": 0},
      {"measurement": "LOLPE damage rating", "setting": "Rates 15", "value": 0},
      {"measurement": "LOLPE damage rating", "setting": "Rates 30", "value": 0},
      {"measurement": "LOLPE damage rating", "setting": "Rates 60", "value": 0},
      {"measurement": "LOLPE damage rating", "setting": "Rates 130", "value": 0},
      {"measurement": "LOLPE damage rating", "setting": "Rates 250", "value": 0},
      {"measurement": "LOLPE damage rating", "setting": "Rates 500", "value": 0},
      {"measurement": "POAAN damage rating", "setting": "Rates 15", "value": 0},
      {"measurement": "POAAN damage rating", "setting": "Rates 30", "value": 0},
      {"measurement": "POAAN damage rating", "setting": "Rates 60", "value": 0},
      {"measurement": "POAAN damage rating", "setting": "Rates 130", "value": 0},
      {"measurement": "POAAN damage rating", "setting": "Rates 250", "value": 0},
      {"measurement": "POAAN damage rating", "setting": "Rates 500", "value": 10},
      {"measurement": "SINAR damage rating", "setting": "Rates 15", "value": 0},
      {"measurement": "SINAR damage rating", "setting": "Rates 30", "value": 0},
      {"measurement": "STEME damage rating", "setting": "Rates 15", "value": 0},
      {"measurement": "STEME damage rating", "setting": "Rates 30", "value": 0},
      {"measurement": "STEME damage rating", "setting": "Rates 60", "value": 0},
      {"measurement": "STEME damage rating", "setting": "Rates 130", "value": 0},
      {"measurement": "STEME damage rating", "setting": "Rates 250", "value": 0},
      {"measurement": "STEME damage rating", "setting": "Rates 500", "value": 10},
      {"measurement": "VERPE damage rating", "setting": "Rates 15", "value": 0},
      {"measurement": "VERPE damage rating", "setting": "Rates 30", "value": 0},
      {"measurement": "VERPE damage rating", "setting": "Rates 60", "value": 0},
      {"measurement": "VERPE damage rating", "setting": "Rates 130", "value": 0},
      {"measurement": "VERPE damage rating", "setting": "Rates 250", "value": 30},
      {"measurement": "VERPE damage rating", "setting": "Rates 500", "value": 50},
      {"measurement": "damage to plant, ALOMY", "setting": "rate 60, 20 DAA", "value": 0},
      {"measurement": "damage to plant, AVEFA", "setting": "rate 60, 20 DAA", "value": 0},
      {"measurement": "damage to plant, BEAVA", "setting": "rate 60, 20 DAA", "value": 0},
      {"measurement": "damage to plant, BROTE", "setting": "rate 60, 20 DAA", "value": 0},
      {"measurement": "damage to plant, BRSNN", "setting": "rate 60, 20 DAA", "value": 0},
      {"measurement": "damage to plant, HORVW", "setting": "rate 60, 20 DAA", "value": 0},
      {"measurement": "damage to plant, SINAR", "setting": "rate 60, 20 DAA", "value": 0},
      {"measurement": "damage to plant, ALOMY", "setting": "rate 130, 20 DAA", "value": 0},
      {"measurement": "damage to plant, AVEFA", "setting": "rate 130, 20 DAA", "value": 0},
      {"measurement": "damage to plant, BEAVA", "setting": "rate 130, 20 DAA", "value": 0},
      {"measurement": "damage to plant, BROTE", "setting": "rate 130, 20 DAA", "value": 0},
      {"measurement": "damage to plant, BRSNN", "setting": "rate 130, 20 DAA", "value": 0},
      {"measurement": "damage to plant, HORVW", "setting": "rate 130, 20 DAA", "value": 0},
      {"measurement": "damage to plant, SINAR", "setting": "rate 130, 20 DAA", "value": 0},
      {"measurement": "damage to plant, ALOMY", "setting": "rate 250, 20 DAA", "value": 0},
      {"measurement": "damage to plant, AVEFA", "setting": "rate 250, 20 DAA", "value": 0},
      {"measurement": "damage to plant, BEAVA", "setting": "rate 250, 20 DAA", "value": 0},
      {"measurement": "damage to plant, BROTE", "setting": "rate 250, 20 DAA", "value": 0},
      {"measurement": "damage to plant, BRSNN", "setting": "rate 250, 20 DAA", "value": 0},
      {"measurement": "damage to plant, HORVW", "setting": "rate 250, 20 DAA", "value": 0},
      {"measurement": "damage to plant, SINAR", "setting": "rate 250, 20 DAA", "value": 0},
      {"measurement": "damage to plant, ALOMY", "setting": "rate 500, 20 DAA", "value": 0},
      {"measurement": "damage to plant, AVEFA", "setting": "rate 500, 20 DAA", "value": 10},
      {"measurement": "damage to plant, BEAVA", "setting": "rate 500, 20 DAA", "value": 0},
      {"measurement": "damage to plant, BROTE", "setting": "rate 500, 20 DAA", "value": 10},
      {"measurement": "damage to plant, BRSNN", "setting": "rate 500, 20 DAA", "value": 0},
      {"measurement": "damage to plant, HORVW", "setting": "rate 500, 20 DAA", "value": 20},
      {"measurement": "damage to plant, SINAR", "setting": "rate 500, 20 DAA", "value": 20}
    ]}
  ]
}
